# Measured values as given in PMC9687021, “Bactericidal and Anti-Biofilm Activity of the FtsZ Inhibitor C109 against Acinetobacter baumannii” (Antibiotics, 2022).
# Biological target: T1, FtsZ (Acinetobacter baumannii, UniProt A0ABX6CKC9)
# T1 construct: full-length (1176 bp ftsZ gene), SUMO tag removed
# Experiment: PK/LDH coupled GTPase assay on purified FtsZ; sedimentation polymerization assay
# Assay type: biochemical
# T1 sequence (A0ABX6CKC9 entry or part of it): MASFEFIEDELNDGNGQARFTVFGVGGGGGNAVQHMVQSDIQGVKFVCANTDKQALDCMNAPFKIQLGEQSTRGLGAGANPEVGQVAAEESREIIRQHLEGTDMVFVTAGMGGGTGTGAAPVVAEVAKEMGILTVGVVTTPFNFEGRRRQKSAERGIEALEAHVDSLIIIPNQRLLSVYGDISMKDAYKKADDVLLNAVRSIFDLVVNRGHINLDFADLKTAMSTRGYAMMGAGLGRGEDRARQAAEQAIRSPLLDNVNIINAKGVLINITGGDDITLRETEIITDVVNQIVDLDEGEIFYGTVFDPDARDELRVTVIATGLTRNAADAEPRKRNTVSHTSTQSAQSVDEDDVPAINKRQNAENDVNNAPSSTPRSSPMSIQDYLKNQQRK
smiles,measurement,value
"COC(=O)CSc1ccc2nsnc2c1[N+](=O)[O-] [C109, methyl [(4-nitro-2,1,3-benzothiadiazol-5-yl)thio]acetate]",IC50,11.8 µM
